The values below come from ChEMBL document CHEMBL4680360, “Novel Oxazine Monoacylglycerol Lipase (MAGL) Inhibitors” (ACS Med Chem Lett, 2021).

The structures appear in SMILES notation.

The target in this experiment is T1, Monoglyceride lipase (Homo sapiens, UniProt Q99685).
T1 sequence (Q99685 whole entry): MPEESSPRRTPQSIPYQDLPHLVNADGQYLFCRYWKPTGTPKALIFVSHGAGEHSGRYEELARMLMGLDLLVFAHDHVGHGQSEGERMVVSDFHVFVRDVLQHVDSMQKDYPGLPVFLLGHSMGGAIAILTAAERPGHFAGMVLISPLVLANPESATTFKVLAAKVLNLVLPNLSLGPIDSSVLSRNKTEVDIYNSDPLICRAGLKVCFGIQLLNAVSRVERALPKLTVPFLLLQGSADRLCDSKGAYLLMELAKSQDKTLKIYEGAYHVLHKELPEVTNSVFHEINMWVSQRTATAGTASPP
Description: Inhibition of MAGL (unknown origin) using 2-AG as substrate incubated for 15 mins followed by substrate addition and measured after 30 mins by mass spectrophotometry.

As a reminder, the IC50 is the concentration that gives 50% inhibition. Read a high IC50 as weaker potency. `Cc1ccc([C@@H](c2ccccc2)C2CCN(C(=O)N3CC[C@@H]4OCC(=O)N[C@@H]4C3)CC2)cc1` yielded an IC50 of 0.1 nM.
